According to ChEMBL document CHEMBL4251635, “Identification and development of benzoxazole derivatives as novel bacterial glutamate racemase inhibitors” (Eur J Med Chem, 2018):
Values after ≈ are worked out from the molar mass of the structure shown.

Tests used:
RAW264.7 = assay: Cytotoxicity against mouse RAW264.7 cells assessed as reduction in cell viability at 25 uM after 48 hrs by MTT assay relative to control; format: cell-based; details: raw264.7, 48 h
[1] = system: Mycobacterium tuberculosis; assay: Antimycobacterial activity against Mycobacterium tuberculosis H37Rv dormant stage assessed as log reduction in bacterial load at 10 ug/ml incubated for 7 days; format: functional
[2] = system: Mycobacterium tuberculosis; assay: Antibiofilm activity against Mycobacterium tuberculosis H37Rv assessed as log reduction in bacterial load at 10 ug/ml incubated for 1 week by MPN assay; format: functional
[3] = system: Mycobacterium tuberculosis; assay: Antimycobacterial activity against replicating Mycobacterium tuberculosis H37Rv incubated for 1 week by MABA method; format: functional; details: 168 h
[4] = system: Mycobacterium tuberculosis; assay: Antimycobacterial activity against replicating Mycobacterium tuberculosis H37Rv incubated for 1 week in presence of verapamil by MABA method; format: functional; details: 168 h
[5] = system: Mycobacterium tuberculosis; assay: Antimycobacterial activity against replicating Mycobacterium tuberculosis H37Rv incubated for 1 week in presence of piperine by MABA method; format: functional; details: 168 h
Mycobacterium marinum [6] = assay: Antimycobacterial activity against Mycobacterium marinum ATCC BAA-535 infected in zebrafish at 5 mg/kg, po treated for 7 days by MPN assay; format: functional
[7] = system: Mycobacterium tuberculosis; assay: Bactericidal activity against Mycobacterium tuberculosis H37Rv dormant stage up to 21 days by time kill assay; format: functional; details: 504 h
[8] = molecular target: T1, Glutamate racemase (Mycobacterium tuberculosis (strain ATCC 25618 / H37Rv)) (UniProt P9WPW9); assay: Stabilization of Mycobacterium tuberculosis glutamate racemase bound to D-glutamate assessed as change in melting temperature by sypro-orange dye-based fluorescence assay
T1 sequence (whole entry): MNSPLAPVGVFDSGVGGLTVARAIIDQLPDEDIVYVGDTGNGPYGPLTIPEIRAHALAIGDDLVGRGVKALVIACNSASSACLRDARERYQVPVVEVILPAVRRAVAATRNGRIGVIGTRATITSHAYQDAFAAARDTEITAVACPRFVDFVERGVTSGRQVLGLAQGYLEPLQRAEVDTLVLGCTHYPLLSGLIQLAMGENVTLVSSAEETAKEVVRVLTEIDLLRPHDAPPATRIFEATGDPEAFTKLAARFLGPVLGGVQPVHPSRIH

[9] = molecular target: T1, Glutamate racemase (Mycobacterium tuberculosis (strain ATCC 25618 / H37Rv)); assay: Stabilization of Mycobacterium tuberculosis glutamate racemase assessed as change in melting temperature by sypro-orange dye-based fluorescence assay
[10] = molecular target: T1, Glutamate racemase (Mycobacterium tuberculosis (strain ATCC 25618 / H37Rv)); assay: Stabilization of Mycobacterium tuberculosis glutamate racemase bound to D-glutamate assessed as melting temperature by sypro-orange dye-based fluorescence assay (reference value: 45.1 degreeC)
[11] = system: Mycobacterium tuberculosis; assay: Bactericidal activity against Mycobacterium tuberculosis H37Rv dormant stage at 5 to 20 uM by time kill assay; format: functional, organism-based; details: TDE = time-dependent effect
[12] = molecular target: T1, Glutamate racemase (Mycobacterium tuberculosis (strain ATCC 25618 / H37Rv)); assay: Stabilization of Mycobacterium tuberculosis glutamate racemase assessed as melting temperature by sypro-orange dye-based fluorescence assay (reference value: 43.7 degreeC)
Mycobacterium marinum [13] = assay: Antimycobacterial activity against Mycobacterium marinum ATCC BAA-535 infected in zebrafish at 10 mg/kg, po treated for 7 days by MPN assay; format: functional
[14] = system: Mycobacterium tuberculosis; assay: Ratio of MIC for Mycobacterium tuberculosis H37Rv to MIC for Mycobacterium tuberculosis H37Rv in presence of verapamil; format: functional

| Structure (SMILES) | Activity (RAW264.7) [%] | MIC [3] [µM] | MIC [4] [µM] | MIC [5] [µM] | further results |
| --- | --- | --- | --- | --- | --- |
| Cc1ccc2oc(-c3cccc(NC(=S)Nc4ccc(F)cc4)c3)nc2c1 | 81.92 | 2.16 (≈ 0.815 µg/mL) |  |  | log(activity) [1]: 2.5; log(activity) [2]: 0.8 |
| CC[C@@H](CO)NCCN[C@@H](CC)CO [ETHAMBUTOL] |  | 7.89 (≈ 1.61 µg/mL) | 3.82 | 3.82 |  |
| COc1c(N2C[C@@H]3CCCN[C@@H]3C2)c(F)cc2c(=O)c(C(=O)O)cn(C3CC3)c12 [MOXIFLOXACIN] |  |  |  |  | log(activity) (Mycobacterium marinum [6]): 2.4; log(activity) [1]: 0.3; log(activity) [2]: 2 |
| Cc1ccc2oc(-c3cccc(NC(=S)NCc4ccccc4)c3)nc2c1 | 38.91 | 2.05 (≈ 0.766 µg/mL) |  |  |  |
| S=C(Nc1ccc(Cl)cc1)Nc1cccc(-c2nc3ccccc3o2)c1 | 22.81 | 63.9 (≈ 24.3 µg/mL) |  |  |  |
| CC(C)c1ccc(NC(=O)Nc2cccc(-c3nc4ccccc4o3)c2)cc1 | 3.52 | 81.2 (≈ 30.2 µg/mL) |  |  |  |
| Cc1ccc2oc(-c3cccc(NC(=O)Nc4ccccc4)c3)nc2c1 | 10.15 | 72.9 (≈ 25 µg/mL) | 72.9 | 72.9 |  |
| Fc1ccc(NC(=S)Nc2cccc(-c3nc4ccccc4o3)c2)cc1 | 96.02 | 4.37 (≈ 1.59 µg/mL) |  |  | log(activity) [1]: 0.2; log(activity) [2]: 0.4; MBC [7]: 27.5 µM (≈ 9.98 µg/mL) |
| O=C(Nc1ccc(F)cc1)Nc1cccc(-c2nc3ccccc3o2)c1 | 2.98 | 72.1 (≈ 25.1 µg/mL) | 72.1 | 72.1 |  |
| CO[C@H]1/C=C/O[C@@]2(C)Oc3c(C)c(O)c4c(O)c(c(/C=N/N5CCN(C)CC5)c(O)c4c3C2=O)NC(=O)/C(C)=C\C=C\[C@H](C)[C@H](O)[C@@H](C)[C@@H](O)[C@@H](C)[C@H](OC(C)=O)[C@@H]1C [RIFAMPIN] |  | 0.21 (≈ 0.173 µg/mL) | 0.21 | 0.21 | log(activity) [1]: 0.8; log(activity) [2]: 1.5 |
| O=[N+]([O-])c1ccc(NC(=S)Nc2cccc(-c3nc4ccccc4o3)c2)cc1 | 88.12 | 2.09 (≈ 0.816 µg/mL) |  |  | log(activity) [1]: 2.5; log(activity) [2]: 0.8 |
| NNC(=O)c1ccncc1 [ISONIAZID] |  | 0.78 (≈ 0.107 µg/mL) | 0.78 | 0.78 | log(activity) (Mycobacterium marinum [6]): 2.5; log(activity) [1]: 1.4; log(activity) [2]: 1.2 |
| Cc1ccc2oc(-c3cccc(NC(=O)NCc4ccccc4)c3)nc2c1 |  |  |  |  | ΔTm [8]: 2 °C; ΔTm [9]: 3.2 °C |
| S=C(Nc1ccccc1)Nc1cccc(-c2nc3ccccc3o2)c1 | 96.23 | 19.3 (≈ 6.67 µg/mL) |  |  |  |
| COc1ccc(NC(=O)Nc2cccc(-c3nc4ccccc4o3)c2)cc1 | 17.26 | 69.3 (≈ 24.9 µg/mL) | 69.3 | 69.3 |  |
| Cc1ccc(NC(=S)Nc2cccc(-c3nc4cc(C)ccc4o3)c2)cc1 | 2.12 | 77 (≈ 28.8 µg/mL) | 77 | 77 |  |
| Cc1ccc2oc(-c3cccc(NC(=O)Nc4ccc(Cl)cc4)c3)nc2c1 | 1.09 | 66.3 (≈ 25.1 µg/mL) |  |  |  |
| Cc1ccc2oc(-c3cccc(NC(=S)Nc4ccccc4)c3)nc2c1 | 87.32 | 69.6 (≈ 25 µg/mL) | 8.69 | 8.69 |  |
| O=C(Nc1ccc([N+](=O)[O-])cc1)Nc1cccc(-c2nc3ccccc3o2)c1 | 95.11 | 67 (≈ 25.1 µg/mL) |  |  |  |
| O=C(NCc1ccccc1)Nc1cccc(-c2nc3ccccc3o2)c1 | 2.12 | 72.8 (≈ 25 µg/mL) |  |  |  |
| Cc1ccc2oc(-c3cccc(NC(=S)Nc4ccc([N+](=O)[O-])cc4)c3)nc2c1 | 98.1 | 61.9 (≈ 25 µg/mL) | 1.91 | 1.91 |  |
| S=C(NCc1ccccc1)Nc1cccc(-c2nc3ccccc3o2)c1 | 47.21 | 69.2 (≈ 24.9 µg/mL) | 2.21 | 2.21 |  |
| COc1ccc(NC(=O)Nc2cccc(-c3nc4cc(C)ccc4o3)c2)cc1 | 11.09 | 67.9 (≈ 25.4 µg/mL) |  |  |  |
| O=C(Nc1ccc(Cl)cc1)Nc1cccc(-c2nc3ccccc3o2)c1 | 38.91 | 68.3 (≈ 24.9 µg/mL) |  |  |  |
| Cc1ccc(NC(=S)Nc2cccc(-c3nc4ccccc4o3)c2)cc1 | 99.14 | 69.5 (≈ 25 µg/mL) |  |  |  |
| Cc1ccc2oc(-c3cccc(NC(=S)Nc4ccc(Cl)cc4)c3)nc2c1 | 55.82 | 8.72 (≈ 3.43 µg/mL) | 2.01 | 2.01 | Tm [10]: 51.9 °C; Activity [11]: Tde; log(activity) [1]: 2.5; Tm [12]: 49.8 °C; log(activity) (Mycobacterium marinum [13]): 3.4; log(activity) [2]: 2.4; Ratio [14]: 4; MBC [7]: 25.4 µM (≈ 10 µg/mL) |
| O=C(Nc1ccccc1)Nc1cccc(-c2nc3ccccc3o2)c1 | 48.38 | 75.1 (≈ 24.7 µg/mL) |  |  |  |
| Cc1ccc2oc(-c3cccc(NC(=O)Nc4ccc(F)cc4)c3)nc2c1 | 3.17 | 69.3 (≈ 25.1 µg/mL) |  |  |  |
| Cc1ccc(NC(=O)Nc2cccc(-c3nc4ccccc4o3)c2)cc1 | 1.09 | 36.2 (≈ 12.4 µg/mL) | 36.2 | 36.2 |  |
